Activity calls are given as the source filed them.
Tests used:
[1] = target: G-protein coupled receptor 55 (Homo sapiens, UniProt Q9Y2T6); experiment: inhibition of LPI-stimulated GPR55 beta-arrestin translocation – imaging, U2OS, beta-arrestin-GFP, LPI agonist, primary screen (AID 2013); assay type: functional;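 further: antagonist potency measured as reduced agonist-driven arrestin aggregation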
Hexokinase = target: T1, Hexokinase (Trypanosoma brucei, UniProt Q38C41); experiment: Confirmation assay for inhibitors of Trypanosoma brucei hexokinase 1-Analogue-first series. [Related pubchem assays (depositor defined):AID1430, AID1632, AID2516, AID2560, AID2579, AID2600, AID449725, AID492951]; assay type: functional
T1 sequence (Q38C41 whole entry): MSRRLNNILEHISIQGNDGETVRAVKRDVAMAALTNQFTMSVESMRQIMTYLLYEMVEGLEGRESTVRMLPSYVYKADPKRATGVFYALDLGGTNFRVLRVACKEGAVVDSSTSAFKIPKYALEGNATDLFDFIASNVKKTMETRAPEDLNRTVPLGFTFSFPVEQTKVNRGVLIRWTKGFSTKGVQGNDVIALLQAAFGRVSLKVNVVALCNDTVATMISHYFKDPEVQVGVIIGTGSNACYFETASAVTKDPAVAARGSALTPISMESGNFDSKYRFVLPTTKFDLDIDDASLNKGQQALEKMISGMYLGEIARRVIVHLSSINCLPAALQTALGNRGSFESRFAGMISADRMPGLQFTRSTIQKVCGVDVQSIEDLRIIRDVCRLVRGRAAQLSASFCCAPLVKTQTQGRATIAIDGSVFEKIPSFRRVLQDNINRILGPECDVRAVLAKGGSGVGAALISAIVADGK

[2] = target: ATP-dependent molecular chaperone HSP82 (Candida albicans (strain WO-1) (Yeast), UniProt C4YTQ8); experiment: steroid-induced GRE reporter decrease in yeast – S. cerevisiae, luminescence, Hsp90 inhibitor project, dose response (AID 2400); assay type: functional, cell-based;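 further: beta-galactosidase luminescence from glucocorticoid response element reporter as proxy for Hsp90 function; inhibitor potency where signal loss means Hsp90 inhibition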
[3] = target: T2, Serine/threonine-protein phosphatase (Candida dubliniensis (strain CD36 / CBS 7987 / NCPF 3949 / NRRLY-17841) (Yeast), UniProt B9W6M3); experiment: blockers of CaCl2-induced CDRE-lacZ signaling – S. cerevisiae, luminescence, secondary, dose response (AID 2388); assay type: functional, cell-based;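 further: yeast reporter cells carrying a calcineurin-responsive lacZ construct stimulated with calcium chloride; luminescent beta-galactosidase reporter signal in whole cells rather than isolated phosphatase activity; potency for inhibition where a drop in reporter signal means calcineurin blockade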
T2 sequence (B9W6M3 whole entry): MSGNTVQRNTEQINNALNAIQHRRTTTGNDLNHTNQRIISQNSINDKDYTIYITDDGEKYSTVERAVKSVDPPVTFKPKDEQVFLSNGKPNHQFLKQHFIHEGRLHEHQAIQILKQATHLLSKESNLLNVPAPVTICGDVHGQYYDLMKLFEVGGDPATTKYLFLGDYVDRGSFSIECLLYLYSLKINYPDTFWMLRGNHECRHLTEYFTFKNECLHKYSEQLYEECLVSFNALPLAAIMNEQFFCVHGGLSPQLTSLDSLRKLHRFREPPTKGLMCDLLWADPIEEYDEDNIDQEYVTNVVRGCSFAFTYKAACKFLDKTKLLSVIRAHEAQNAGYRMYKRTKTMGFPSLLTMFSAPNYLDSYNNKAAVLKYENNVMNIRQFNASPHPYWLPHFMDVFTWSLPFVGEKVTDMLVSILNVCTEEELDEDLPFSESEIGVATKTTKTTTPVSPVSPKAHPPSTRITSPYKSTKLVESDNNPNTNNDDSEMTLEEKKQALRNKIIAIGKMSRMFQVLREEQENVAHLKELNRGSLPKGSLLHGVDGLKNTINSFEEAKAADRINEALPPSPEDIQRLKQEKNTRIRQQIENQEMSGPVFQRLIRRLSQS

[4] = NIH-3T3 fibroblast cytotoxicity, dose response, cytotoxicity control, cell-based, fluorescence, Alamar Blue, secondary assay (AID 2327); assay type: functional;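 further: NIH-3T3 mouse fibroblasts cultured with fluconazole at 8 µg/mL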
[5] = fluconazole-exposed Candida albicans growth modulators – fluorescence, retest, confirmation (AID 2467); assay type: functional, cell-based
Trypsin = Trypsin (Sus scrofa, UniProt P00761); experiment: trypsin protease activity blockade – biochemical, quenched peptide fluorescence, cherry-pick, selectivity assay for Rce1 protease inhibitor project, dose response (AID 488789)
CAAX prenyl protease 2 = target: T3, CAAX prenyl protease 2 (Saccharomyces cerevisiae S288c, UniProt Q03530); assay type: biochemical
T3 sequence (Q03530 whole entry): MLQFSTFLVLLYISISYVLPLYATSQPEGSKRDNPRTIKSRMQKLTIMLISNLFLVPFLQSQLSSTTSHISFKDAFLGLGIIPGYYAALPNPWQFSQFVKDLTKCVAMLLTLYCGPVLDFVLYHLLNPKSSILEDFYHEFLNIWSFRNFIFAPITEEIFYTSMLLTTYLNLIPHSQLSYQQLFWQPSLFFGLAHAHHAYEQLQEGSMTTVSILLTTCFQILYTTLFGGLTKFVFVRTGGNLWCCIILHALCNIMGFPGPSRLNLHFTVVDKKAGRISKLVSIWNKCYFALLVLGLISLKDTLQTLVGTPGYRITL

[6] = target: Glyceraldehyde-3-phosphate dehydrogenase (Homo sapiens, UniProt P04406)
[7] = target: T4, Alkaline phosphatase, tissue-nonspecific isozyme (Homo sapiens, UniProt P05186); experiment: potency against alkaline phosphatase TNAP – biochemical, luminescent, dose response, SAR follow-up (AID 1056)
T4 sequence (P05186 whole entry): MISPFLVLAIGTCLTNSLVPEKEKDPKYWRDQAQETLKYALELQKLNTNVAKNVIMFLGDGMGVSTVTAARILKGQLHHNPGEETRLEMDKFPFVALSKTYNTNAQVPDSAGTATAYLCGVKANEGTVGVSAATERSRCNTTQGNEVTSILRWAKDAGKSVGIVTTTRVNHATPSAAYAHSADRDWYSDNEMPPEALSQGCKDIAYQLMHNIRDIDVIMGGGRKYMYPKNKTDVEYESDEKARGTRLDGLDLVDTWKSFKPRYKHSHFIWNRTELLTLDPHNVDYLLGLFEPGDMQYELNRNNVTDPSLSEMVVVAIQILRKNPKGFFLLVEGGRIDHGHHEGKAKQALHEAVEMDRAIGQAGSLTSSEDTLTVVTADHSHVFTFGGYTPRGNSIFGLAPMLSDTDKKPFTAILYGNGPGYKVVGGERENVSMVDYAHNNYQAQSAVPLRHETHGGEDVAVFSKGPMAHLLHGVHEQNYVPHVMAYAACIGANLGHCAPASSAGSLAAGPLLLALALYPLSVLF

Protein skinhead-1 = target: T5, Protein skinhead-1 (Caenorhabditis elegans, UniProt P34707); assay type: functional
T5 sequence (P34707 whole entry): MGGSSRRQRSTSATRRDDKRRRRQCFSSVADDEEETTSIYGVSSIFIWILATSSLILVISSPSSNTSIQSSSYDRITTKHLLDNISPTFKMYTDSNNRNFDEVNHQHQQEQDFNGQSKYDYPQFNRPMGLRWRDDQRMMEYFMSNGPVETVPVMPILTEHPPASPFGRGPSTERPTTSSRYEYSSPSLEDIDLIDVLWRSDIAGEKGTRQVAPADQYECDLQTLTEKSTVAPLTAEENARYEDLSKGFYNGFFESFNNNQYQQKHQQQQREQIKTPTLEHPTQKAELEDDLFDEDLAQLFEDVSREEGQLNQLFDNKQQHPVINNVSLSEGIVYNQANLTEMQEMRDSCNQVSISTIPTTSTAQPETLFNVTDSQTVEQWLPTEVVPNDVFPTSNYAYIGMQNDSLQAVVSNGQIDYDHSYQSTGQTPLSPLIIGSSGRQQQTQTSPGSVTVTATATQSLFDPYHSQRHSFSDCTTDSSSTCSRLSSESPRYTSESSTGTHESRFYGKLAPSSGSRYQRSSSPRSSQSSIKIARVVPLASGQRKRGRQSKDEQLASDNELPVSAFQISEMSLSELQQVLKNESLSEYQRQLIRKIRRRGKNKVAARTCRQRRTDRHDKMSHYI

Cytochrome P450 2C9 = Cytochrome P450 2C9 (Homo sapiens, UniProt P11712)
Cytochrome P450 2D6 = Cytochrome P450 2D6 (Homo sapiens, UniProt P10635);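 further: CYP2D6 member of a cytochrome P450 panel assay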
Coagulation factor XII = target: T6, Coagulation factor XII (Homo sapiens, UniProt P00748); assay type: functional;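 further: activated factor XIIa alpha cleaving a fluorogenic AMC peptide substrate; inhibitor potency from loss of enzyme activity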
T6 sequence (P00748 whole entry): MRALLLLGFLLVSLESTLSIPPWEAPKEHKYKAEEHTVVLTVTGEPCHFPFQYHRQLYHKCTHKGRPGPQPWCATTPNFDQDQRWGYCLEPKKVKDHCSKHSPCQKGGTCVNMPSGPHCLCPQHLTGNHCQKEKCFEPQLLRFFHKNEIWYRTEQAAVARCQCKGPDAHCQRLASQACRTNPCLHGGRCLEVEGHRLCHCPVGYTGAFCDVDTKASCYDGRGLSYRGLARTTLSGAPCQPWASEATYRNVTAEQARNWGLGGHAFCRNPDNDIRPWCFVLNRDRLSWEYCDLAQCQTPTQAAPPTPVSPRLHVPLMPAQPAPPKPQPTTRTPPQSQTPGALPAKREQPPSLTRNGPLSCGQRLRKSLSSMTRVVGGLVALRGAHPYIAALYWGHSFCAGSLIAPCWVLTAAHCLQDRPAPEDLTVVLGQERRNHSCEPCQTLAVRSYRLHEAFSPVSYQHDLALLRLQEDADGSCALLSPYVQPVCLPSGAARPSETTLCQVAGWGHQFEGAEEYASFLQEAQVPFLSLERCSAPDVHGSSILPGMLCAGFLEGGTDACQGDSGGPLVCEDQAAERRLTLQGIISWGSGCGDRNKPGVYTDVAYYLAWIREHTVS

[8] = DRD fibroblast viability loss – cell-based, non-viral oncogenic, luminescence, dose response (AID 1934); assay type: functional; conditions: Homo sapiens
BJ [9] = experiment: cells; assay type: functional, cell-based; conditions: Homo sapiens
BJ [10] = experiment: BJ-TERT fibroblast viability loss – cell-based, RAS-independent, luminescence, dose response (AID 1933); assay type: functional; conditions: Homo sapiens
BJ [11] = experiment: BJ-TERT-LT-ST fibroblast viability loss – cell-based, RAS-independent, luminescence, dose response (AID 1935); assay type: functional; conditions: Homo sapiens;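 further: BJ fibroblasts immortalized with TERT plus LT and ST oncogenes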
[12] = MIN6 cell viability loss – mouse insulinoma, cytotoxicity control, dose response (AID 2122); assay type: functional;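 further: confirmatory high-throughput counterscreen run to flag cytotoxic compounds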
[13] = decrease of insulin promoter-GFP reporter – imaging, high-content screening, mouse beta cells (AID 1628); assay type: functional; conditions: MIN6
HEK293 = experiment: EBV LMP1 TES2 canonical NF-kB signalling blockers – cell-based, HEK293, luciferase, cherry-pick, dose response (AID 588343); assay type: functional; conditions: Homo sapiens
[14] = target: Protein-tyrosine kinase 2-beta (Homo sapiens, UniProt Q14289);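 further: potency of inhibitors of PYK2 kinase phosphorylation of poly-GT substrate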
Nonstructural protein 1 = Nonstructural protein 1 (Influenza A virus, UniProt Q194T2); assay type: functional, Influenza A virus (A/California/07/2009(H1N1))
[15] = target: FAD-linked sulfhydryl oxidase ALR (Homo sapiens, UniProt P55789); experiment: ALR-catalysed DTT oxidation blockers – biochemical, H2O2 detection, luminescence, cherry-pick, dose response (AID 493248)
Troponin, cardiac muscle = Troponin, cardiac muscle (Homo sapiens, UniProt P19429+P45379+P63316); experiment: Fluorescence-based biochemical high throughput dose response assay for activators of the calcium sensitivity of cardiac Regulated Thin Filaments (RTF). [Related pubchem assays (depositor defined):AID493008, AID493018, AID504382, AID504383]; assay type: protein-complex assay
[16] = target: Beta-2 adrenergic receptor (Homo sapiens, UniProt P07550); experiment: ADRB2 activation measured by internalization – cell-based, FAP fluorogen, flow cytometry, cherry pick 1, dose response (AID 588763); assay type: functional
Beta-2 adrenergic receptor, sequence (P07550 whole entry): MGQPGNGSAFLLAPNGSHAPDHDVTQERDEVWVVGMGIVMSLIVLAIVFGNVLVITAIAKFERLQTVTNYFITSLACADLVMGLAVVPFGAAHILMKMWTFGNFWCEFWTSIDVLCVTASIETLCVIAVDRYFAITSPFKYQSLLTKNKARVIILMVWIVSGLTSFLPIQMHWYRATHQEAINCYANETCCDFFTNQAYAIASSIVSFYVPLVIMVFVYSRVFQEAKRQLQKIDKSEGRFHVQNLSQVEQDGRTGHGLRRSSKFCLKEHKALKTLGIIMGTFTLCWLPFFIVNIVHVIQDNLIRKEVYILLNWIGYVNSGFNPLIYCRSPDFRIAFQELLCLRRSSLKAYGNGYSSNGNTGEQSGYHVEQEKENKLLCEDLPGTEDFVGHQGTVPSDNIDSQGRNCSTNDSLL

G-protein coupled receptor 55, sequence (Q9Y2T6 whole entry): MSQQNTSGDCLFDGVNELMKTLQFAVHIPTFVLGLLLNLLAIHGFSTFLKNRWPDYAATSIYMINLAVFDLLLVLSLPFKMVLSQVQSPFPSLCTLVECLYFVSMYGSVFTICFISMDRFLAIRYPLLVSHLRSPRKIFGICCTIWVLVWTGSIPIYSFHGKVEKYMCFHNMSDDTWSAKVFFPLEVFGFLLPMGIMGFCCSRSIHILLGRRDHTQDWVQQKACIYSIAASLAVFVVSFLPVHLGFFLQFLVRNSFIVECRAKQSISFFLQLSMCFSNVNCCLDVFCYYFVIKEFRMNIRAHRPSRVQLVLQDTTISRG
ATP-dependent molecular chaperone HSP82, sequence (C4YTQ8 whole entry): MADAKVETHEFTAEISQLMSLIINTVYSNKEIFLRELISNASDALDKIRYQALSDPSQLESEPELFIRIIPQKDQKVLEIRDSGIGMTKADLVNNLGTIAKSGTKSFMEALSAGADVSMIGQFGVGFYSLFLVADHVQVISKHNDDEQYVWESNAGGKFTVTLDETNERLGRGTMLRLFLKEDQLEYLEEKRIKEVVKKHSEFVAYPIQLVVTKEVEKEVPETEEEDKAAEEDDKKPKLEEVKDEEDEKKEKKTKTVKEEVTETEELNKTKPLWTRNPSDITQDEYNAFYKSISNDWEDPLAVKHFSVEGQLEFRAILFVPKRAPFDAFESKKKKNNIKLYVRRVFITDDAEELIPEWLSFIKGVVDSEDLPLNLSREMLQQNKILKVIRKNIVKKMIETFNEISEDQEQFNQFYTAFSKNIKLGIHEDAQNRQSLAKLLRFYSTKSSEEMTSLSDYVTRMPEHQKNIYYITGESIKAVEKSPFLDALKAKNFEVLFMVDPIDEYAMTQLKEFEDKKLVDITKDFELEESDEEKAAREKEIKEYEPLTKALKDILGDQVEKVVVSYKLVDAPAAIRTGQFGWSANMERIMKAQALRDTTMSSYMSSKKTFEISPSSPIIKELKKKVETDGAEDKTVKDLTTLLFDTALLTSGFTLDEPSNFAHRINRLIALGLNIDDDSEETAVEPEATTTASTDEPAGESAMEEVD
Cytochrome P450 2D6, sequence (P10635 whole entry): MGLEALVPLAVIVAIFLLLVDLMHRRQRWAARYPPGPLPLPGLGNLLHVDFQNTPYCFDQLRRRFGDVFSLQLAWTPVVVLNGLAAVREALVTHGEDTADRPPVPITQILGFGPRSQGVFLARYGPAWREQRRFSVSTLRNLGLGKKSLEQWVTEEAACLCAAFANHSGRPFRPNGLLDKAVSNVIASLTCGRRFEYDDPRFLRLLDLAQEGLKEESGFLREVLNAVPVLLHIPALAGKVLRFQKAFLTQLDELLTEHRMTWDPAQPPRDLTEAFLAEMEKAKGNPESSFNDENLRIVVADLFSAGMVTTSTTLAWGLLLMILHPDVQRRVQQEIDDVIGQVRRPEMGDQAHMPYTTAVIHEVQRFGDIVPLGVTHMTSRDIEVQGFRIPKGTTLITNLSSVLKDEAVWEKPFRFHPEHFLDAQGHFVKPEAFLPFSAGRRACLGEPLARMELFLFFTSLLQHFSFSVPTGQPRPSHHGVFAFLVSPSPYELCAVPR
Protein-tyrosine kinase 2-beta, sequence (Q14289 whole entry): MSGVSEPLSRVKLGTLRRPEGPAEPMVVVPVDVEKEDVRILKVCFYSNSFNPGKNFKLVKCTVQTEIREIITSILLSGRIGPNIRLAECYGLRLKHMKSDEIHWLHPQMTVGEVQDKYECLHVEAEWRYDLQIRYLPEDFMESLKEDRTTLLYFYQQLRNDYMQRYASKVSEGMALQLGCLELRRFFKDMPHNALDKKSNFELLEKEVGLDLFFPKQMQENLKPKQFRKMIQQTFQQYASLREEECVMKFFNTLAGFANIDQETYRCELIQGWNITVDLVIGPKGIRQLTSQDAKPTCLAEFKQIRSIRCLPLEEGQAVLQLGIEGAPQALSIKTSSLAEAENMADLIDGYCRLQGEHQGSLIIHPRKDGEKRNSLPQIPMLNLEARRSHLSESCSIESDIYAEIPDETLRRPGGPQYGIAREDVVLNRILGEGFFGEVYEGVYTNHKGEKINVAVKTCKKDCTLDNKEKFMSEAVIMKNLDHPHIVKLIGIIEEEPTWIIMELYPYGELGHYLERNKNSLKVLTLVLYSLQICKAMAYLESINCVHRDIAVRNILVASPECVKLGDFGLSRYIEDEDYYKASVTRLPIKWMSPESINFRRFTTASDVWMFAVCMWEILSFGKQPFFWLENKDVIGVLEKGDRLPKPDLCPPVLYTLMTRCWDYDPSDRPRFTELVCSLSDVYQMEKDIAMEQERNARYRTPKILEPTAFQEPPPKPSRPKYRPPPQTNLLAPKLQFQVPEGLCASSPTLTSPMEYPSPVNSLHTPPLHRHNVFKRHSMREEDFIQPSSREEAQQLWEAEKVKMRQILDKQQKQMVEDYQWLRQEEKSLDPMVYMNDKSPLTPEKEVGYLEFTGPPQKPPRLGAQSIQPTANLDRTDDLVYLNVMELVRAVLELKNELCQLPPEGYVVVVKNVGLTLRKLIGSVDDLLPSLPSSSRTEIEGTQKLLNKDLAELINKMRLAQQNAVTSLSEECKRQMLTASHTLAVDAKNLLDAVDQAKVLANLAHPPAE
FAD-linked sulfhydryl oxidase ALR, sequence (P55789 whole entry): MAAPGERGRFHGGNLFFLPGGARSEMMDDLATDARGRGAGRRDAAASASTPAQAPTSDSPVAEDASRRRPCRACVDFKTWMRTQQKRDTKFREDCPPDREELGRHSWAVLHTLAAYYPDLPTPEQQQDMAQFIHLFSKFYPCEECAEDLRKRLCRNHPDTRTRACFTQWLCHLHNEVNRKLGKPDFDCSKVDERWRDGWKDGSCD
Glyceraldehyde-3-phosphate dehydrogenase, sequence (P04406 whole entry): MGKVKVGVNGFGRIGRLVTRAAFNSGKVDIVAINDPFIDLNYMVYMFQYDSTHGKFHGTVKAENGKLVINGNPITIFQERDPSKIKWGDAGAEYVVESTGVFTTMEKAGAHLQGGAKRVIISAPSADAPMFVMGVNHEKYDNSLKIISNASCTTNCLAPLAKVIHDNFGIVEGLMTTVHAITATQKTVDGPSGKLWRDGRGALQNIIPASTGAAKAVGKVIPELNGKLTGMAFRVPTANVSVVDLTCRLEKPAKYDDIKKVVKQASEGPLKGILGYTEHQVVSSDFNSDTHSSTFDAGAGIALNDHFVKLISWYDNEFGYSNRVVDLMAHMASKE
Cytochrome P450 2C9, sequence (P11712 whole entry): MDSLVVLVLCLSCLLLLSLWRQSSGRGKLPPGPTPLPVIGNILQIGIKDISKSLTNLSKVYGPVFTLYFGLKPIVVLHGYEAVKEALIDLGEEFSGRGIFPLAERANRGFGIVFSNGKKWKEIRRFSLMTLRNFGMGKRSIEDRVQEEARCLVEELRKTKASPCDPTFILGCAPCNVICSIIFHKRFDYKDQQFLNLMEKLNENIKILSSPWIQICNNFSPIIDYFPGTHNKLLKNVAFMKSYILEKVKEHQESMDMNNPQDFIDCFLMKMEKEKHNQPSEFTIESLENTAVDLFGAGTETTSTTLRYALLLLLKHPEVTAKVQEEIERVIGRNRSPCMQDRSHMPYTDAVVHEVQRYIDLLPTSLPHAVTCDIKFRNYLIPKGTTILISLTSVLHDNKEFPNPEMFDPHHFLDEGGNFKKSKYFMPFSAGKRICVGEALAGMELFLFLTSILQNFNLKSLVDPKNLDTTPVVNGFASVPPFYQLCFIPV
Trypsin, sequence (P00761 whole entry): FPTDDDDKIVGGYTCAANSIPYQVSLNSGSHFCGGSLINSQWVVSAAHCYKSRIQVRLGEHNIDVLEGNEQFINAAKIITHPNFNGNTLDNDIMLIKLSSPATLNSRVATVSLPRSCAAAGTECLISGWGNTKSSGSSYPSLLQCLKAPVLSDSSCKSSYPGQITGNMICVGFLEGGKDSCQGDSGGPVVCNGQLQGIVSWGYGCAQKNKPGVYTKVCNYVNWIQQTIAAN
Nonstructural protein 1, sequence (Q194T2 whole entry): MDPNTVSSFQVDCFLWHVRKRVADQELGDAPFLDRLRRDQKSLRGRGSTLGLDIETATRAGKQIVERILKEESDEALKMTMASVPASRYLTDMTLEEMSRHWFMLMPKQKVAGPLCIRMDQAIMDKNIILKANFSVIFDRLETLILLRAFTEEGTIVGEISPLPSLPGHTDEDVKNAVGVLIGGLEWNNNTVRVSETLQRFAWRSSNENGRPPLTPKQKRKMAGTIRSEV

SMILES: Cc1ccccc1N(C(=O)c1cccs1)c1nc2ccccc2s1
- IC50 [1]: 1.52 µM (active)

SMILES: O=C(Nc1cc(Cl)ccc1C(=O)O)c1ccc(OC(F)(F)F)cc1
- IC50 (Hexokinase): > 25 µM (inactive)

SMILES: O=C(Cc1nc2ccccc2s1)c1ccc(O)cc1O
- EC50 [2]: > 160 µM (inactive)
- EC50 [3]: > 180 µM (inactive)
- EC50 [4]: > 160 µM (inactive)
- EC50 [5]: 0.691 µM (active)

SMILES: Cc1cc(C)n2cc(CSc3nncn3C)nc2n1
- AC50 (Trypsin): 8.35 µM (active)
- AC50 (CAAX prenyl protease 2): 13.8 µM (active)

SMILES: COC(=O)c1cc(-c2ccc(Br)cc2)n[nH]1
- IC50 [6]: > 100 µM (not active)
- IC50 [7]: > 100 µM (inactive)
- IC50 (Protein skinhead-1): > 100 µM (inactive)

SMILES: O=c1c(-c2nnc(SCc3ccc(Cl)c(Cl)c3)o2)cccn1Cc1ccccc1
- AC50 (Cytochrome P450 2C9): 15.8 µM (inconclusive)
- AC50 (CAAX prenyl protease 2): 11 µM (active)
- AC50 (Cytochrome P450 2D6): 28.2 µM (inconclusive)

SMILES: NS(=O)(=O)c1ccc(NNC(=O)c2sccc2Cl)cc1
- IC50 (Coagulation factor XII): > 50 µM (inactive)

SMILES: N#C/C(=C\c1ccc(N2CCOCC2)cc1)c1ccccc1
- EC50 [2]: 68.9 µM (active)
- EC50 [3]: > 180 µM (inactive)
- EC50 [4]: > 150 µM (inactive)
- EC50 [5]: 0.49 µM (active)

SMILES: CCc1nc(C)cn1S(=O)(=O)c1cc([N+](=O)[O-])ccc1Cl
- EC50 [8]: 7.62 µM (inconclusive)
- EC50 (BJ [9]): 4.81 µM (inconclusive)
- EC50 (BJ [10]): 8.45 µM (inconclusive)
- EC50 (BJ [11]): 3.93 µM (active)
- IC50 [12]: 2.53 µM (active)
- IC50 [1]: 6.53 µM (active)
- IC50 [13]: 2.59 µM (active)

SMILES: Cc1ccsc1/C=N/NC(=O)c1ccc2c(c1)OCCO2
- AC50 (HEK293): 7.87 µM (active)
- IC50 (Coagulation factor XII): > 50 µM (inactive)

SMILES: O=c1oc(-c2ccc(Br)o2)nc2ccccc12
- IC50 [14]: 2.66 µM (active)
- IC50 (Coagulation factor XII): > 50 µM (inactive)

SMILES: CC1=NN(c2ccc(C)cc2)C(=O)/C1=C\C=C\c1ccccc1
- IC50 (Nonstructural protein 1): 21.1 µM (active)

SMILES: O=C1NC(=O)N(Cc2ccc(F)cc2)C(=O)/C1=C/NNc1ccccc1
- AC50 [15]: 0.438 µM (active)
- EC50 (Troponin, cardiac muscle): > 71.5 µM (inactive)

SMILES: O=C(COc1ccccc1F)N1c2ccccc2CCc2ccccc21
- EC50 [16]: 1.6 µM (active)

SMILES: O=c1c2c(Br)cccc2sn1-c1ccccc1
- IC50 (Hexokinase): 1.93 µM (active)

SMILES: COc1ccccc1N1CCN(c2ccc([N+](=O)[O-])cc2Cl)CC1
- EC50 (Troponin, cardiac muscle): > 71.5 µM (inactive)

Reference: ChEMBL document CHEMBL1201862, “PubChem BioAssay data set” (2004)
